One assay deals with normal human melanocyte. Briefly: Ultraviolet B (UVB)-induced activation inhibition test using normal human melanocyte (MTT, supernatant of UVB-irradiated keratinocytes). The assay is classed as cell-based. The conditions noted are these: light or radiation study, UVB 5 mJ/cm^2, compound 100 mM in DMSO diluted 1,000 times, formazan production ratio, DMSO negative control irradiated with UVB = 100, average of three measurements, read-out: Melanocyte proliferation ratio Average (%). On the procedure: The suppressing effect of each of the compounds, which was exerted on the activation of melanocyte by the melanocyte activating factor produced and released from normal human keratinocyte by the ultraviolet B (UVB), was investigated by using the index of the cell proliferation function of normal human melanocyte.
Normal human keratinocyte cells (Kurabo Industries, Ltd.) were seeded by using Humedia-KG2 medium (Kurabo Industries, Ltd.) at a concentration of 10×10^4 cells/well in 24-well plate, followed by being cultured for 24 hours.
The compound to be evaluated was dissolved at a concentration of 100 mM in DMSO, which was diluted 1,000 times with Humedia-KG2 medium and used as a sample solution. As for the positive control group, tranexamic acid was dissolved at a concentration of 100 mM in DMSO, which was diluted 1,000 times with Humedia-KG2 medium and used as a positive control sample solution. As for the negative control group, DMSO was diluted 1,000 times with Humedia-KG2 medium, which was used as a negative control sample solution. A concentration, at which the cell proliferation of normal human melanocyte was not affected, was set for each of the compounds.
The medium of normal human keratinocyte was exchanged with Humedia-KG2 medium (sample solution) containing the compound at a predetermined concentration, and the cells were cultured for further 24 hours. After that, the medium was exchanged with PBS (phosphate buffered saline), and cells were irradiated with the ultraviolet B (UVB) at 5 mJ/cm^2 by using an ultraviolet lamp (FL20S•E-30/DMR, Toshiba Medical Supply Co., Ltd.) as a light source. After the ultraviolet radiation, PBS was exchanged with the sample solution. Cells were cultured for further 24 hours, and then the culture supernatant was collected.
Normal human melanocyte cells were seeded to 96-well plate by using a medium of Medium 254 (Kurabo Industries, Ltd.) so that the concentration was 3×10^4 cells/well, and the cultivation was performed for 24 hours. After that, the medium was exchanged with the culture supernatant collected from normal human keratinocyte, and the cells were cultured for further 24 hours. After the cultivation for 24 hours, the medium was exchanged with Humedia-KG2 medium containing 0.5 mg/mL of 3-(4,5-dimethyl-2-thiazoyl)-2,5-diphenyl-2H-tetrazolium bromide (MTT), and the cultivation was performed for 3 hours.
The formazan amount was determined by measuring the absorbances at 570 nm and 690 nm of cell lysate prepared with 2-propanol by means of a microplate reader (Benchmark Plus, Bio-Rad) and subtracting the absorbance at 690 nm from the absorbance at 570 nm.
The suppressing effect of each of the compounds on the melanocyte proliferation was represented by the percentage (%) as the formazan production ratio while the absorbance of the DMSO added group (negative control group) irradiated with the ultraviolet B (UVB) was assumed as 100.
It can be judged that the lower the production ratio of formazan is, the lower the melanocyte proliferation ratio is. Therefore, when the production ratio of formazan is lower, it is possible to judge that the suppressing activity of the compound to be evaluated is high with respect to the activation of melanocyte by the melanocyte activating factor produced and released by normal human keratinocyte.

Another assay concerns pigmented guinea pigs. Briefly: Ultraviolet ray-induced pigmentation inhibition test using pigmented guinea pigs. The assay is classed as in vivo, guinea pig. The conditions noted are these: 3% (w/v) in ethanol, 30 μL once a day for 5 weeks; L* on 36th day minus L* before ultraviolet radiation; average ± standard deviation of 8 samples; solvent control −11.83 ± 0.78. The text has this:
Skins of backs of eight pigmented guinea pigs were subjected to the hair removal and the hair shaving with electric hair clippers and shaver, and these sites were covered with black cloths each having four radiation windows of 2×2 cm in total disposed at two upper left and right positions and two lower left and right positions respectively. After that, the ultraviolet ray was radiated at 300 mJ/cm^2 by using FL20S•E30 lamp as the light source. This operation was repeatedly performed on 1st, 3rd, 5th, and 8th days of the test to induce the pigmentation at the four test sites. The compound to be evaluated (Compound 1) was dissolved and prepared in ethanol so that the concentration was 3% (w/v). Ethanol was applied as the solvent control group. The application of each of the compounds to be evaluated was started from the time of completion of the ultraviolet radiation on the 1st day of the test. Each of the compounds to be evaluated was applied in an amount of 30 μL once a day to the predetermined test sites, and this procedure was continuously carried out for 5 weeks (until 35th day of the test). […]

SMILES strings stand for the structures.

For the compound `Cc1ccc(C(=O)NC(CO)C(=O)O)cc1` (racemic) [Compound 3, N-(p-methylbenzoyl)serine], in the assay with normal human melanocyte, the activity at 100 µM turned out to be 61.6%. On to `COCC(NC(=O)c1ccc(C)cc1)C(=O)O` (racemic) [Compound 9, N-(p-methylbenzoyl)-O-methylserine], for which the activity at 100 µM with normal human melanocyte was determined as 62.3%. `COCC(NC(=O)c1ccc2ccccc2c1)C(=O)O` (racemic) [Compound 13, N-(2-naphthoyl)-O-methylserine]: the activity at 100 µM with normal human melanocyte worked out at 80.3%. For `COCC(NC(=O)c1ccccc1)C(=O)O` (racemic) [Compound 16, N-benzoyl-O-methylserine], the activity at 100 µM with normal human melanocyte stood at 65.5%. Consider `Cc1ccc(C(=O)N[C@@H](CO)C(=O)O)cc1` [Compound 1, N-(p-methylbenzoyl)-L-serine], for which the “ΔL* value” in the assay with pigmented guinea pigs is reported as −9.98 ± 0.71. In addition, the activity at 100 µM with normal human melanocyte is 57%.

As to `O=C(N[C@@H](CO)C(=O)O)c1ccccc1` [Compound 2, N-benzoyl-serine], in the assay with normal human melanocyte, the activity at 100 µM turned out to be 60.9%. Still for that read-out and setting: then `O=C(N[C@@H](CO)C(=O)O)c1ccc(F)cc1` [Compound 4, N-(p-fluorobenzoyl)serine], with 55.3%; and `COc1ccc(C(=O)N[C@@H](CO)C(=O)O)cc1` [Compound 5, N-(p-methoxybenzoyl)serine], with 63.4%. `CCc1ccc(C(=O)N[C@@H](CO)C(=O)O)cc1` [Compound 7, N-(p-ethylbenzoyl)serine]: the activity at 100 µM in the assay with normal human melanocyte turned out to be 65.1%. Take `O=C(N[C@@H](CO)C(=O)O)c1ccc(C(F)(F)F)cc1` [Compound 8, N-(p-trifluoromethylbenzoyl)serine]: in the assay on normal human melanocyte, the activity at 100 µM is 53.9%. Still for that read-out and setting: for `O=C(N[C@@H](CO)C(=O)O)c1ccc2ccccc2c1` [Compound 10, N-(2-naphthoyl)serine] the value was 82.4%; for `CC(=O)OC[C@H](NC(=O)c1ccc(C)cc1)C(=O)O` [Compound 11, N-(p-methylbenzoyl)-O-acetylserine], 71.8%; for `COC(=O)[C@H](CO)NC(=O)c1ccc2ccccc2c1` [Compound 12, N-(2-naphthoyl)serine methyl ester], 83.1%. On to `O=C(N[C@@H](CO)C(=O)O)c1ccc(-c2ccccc2)cc1` [Compound 14, N-(4-phenylbenzoyl)serine], for which the activity at 100 µM in the assay on normal human melanocyte is 75%.

Take `Cc1ccc(C(=O)NC(CO)C(=O)O)cc1` (stereo not drawn) [Compound 15, N-(p-methylbenzoyl)serine]: the activity at 100 µM with normal human melanocyte is 60.2%. The same measure, in the same setting: for `CCOC(=O)[C@H](CO)NC(=O)c1ccc(C)cc1` [Compound 17, N-(p-methylbenzoyl)serine ethyl ester] the value was 73.6%. Take `NC[C@H]1CC[C@H](C(=O)O)CC1` [Tranexamic acid, tranexamic acid, reference compound]: the activity at 100 µM with normal human melanocyte worked out at 82%.

The record behind these values is patent US9414998B2, “Preventing or ameliorating agent for pigmentation” (Pola Chemical Industries Inc., priority 2009, dated 2016).
